SMILES strings stand for the structures.

This experiment concerns the target T1, human C5a receptor (Homo sapiens, UniProt P21730).
T1 construct: endogenous in cells; host or cells: U937 cells differentiated with 1 mM dibutyryl cAMP
T1 sequence (P21730 1-350): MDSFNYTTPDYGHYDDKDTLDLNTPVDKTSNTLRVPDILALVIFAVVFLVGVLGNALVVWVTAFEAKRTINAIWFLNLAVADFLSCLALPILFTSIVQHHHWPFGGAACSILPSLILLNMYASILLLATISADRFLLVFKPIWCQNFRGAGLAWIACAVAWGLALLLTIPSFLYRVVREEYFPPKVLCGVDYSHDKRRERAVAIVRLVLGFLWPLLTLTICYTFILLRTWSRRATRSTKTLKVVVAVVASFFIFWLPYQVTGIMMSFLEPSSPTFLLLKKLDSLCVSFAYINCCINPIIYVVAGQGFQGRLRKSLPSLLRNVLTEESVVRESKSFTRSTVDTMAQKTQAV
As to the kind of experiment: C5a receptor mediated calcium mobilization assay (Example 20). It counts as cell-based. To be noted: differentiated U937 cells, read-out: Ca2+ (Ki in the standard assay of C5a receptor mediated calcium mobilization). In outline: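 Differentiated U937 cells (dibutyryl cAMP, 48 h) loaded with Fluo-3 were pre-incubated 1 h with compound at 1 μM, then challenged with 0.3 nM (final) human recombinant C5a. Calcium response monitored by FLIPR fluorescence (Ex 480/Em 530 nm); antagonism defined as ≥2-fold decrease versus C5a alone.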
For the compound `Cc1cccc(C2c3ccccc3CCN2CC(=O)N(Cc2ccccc2F)C2Cc3ccccc3C2)c1C` (stereo not drawn) [Compound 25, N-(indan-2-yl)-2-[1-(2,3-dimethylphenyl)-3,4-dihydroisoquinolin-2(1H)-yl]-N-(2-fluorobenzyl)acetamide], the Ki was less than 1 µM.
Next, `C[C@@H](C(=O)N(Cc1ccccc1F)C1Cc2ccccc2C1)N1CCc2ccccc2[C@@H]1c1c(F)cccc1F` [Compound 89, (2S)-2-[(1R)-1(2,6-difluorophenyl)-3,4-dihydroisoquinolin-2(1H)-yl]-N-(indan-2-yl)-N-(2-fluorobenzyl)propanamide]: less than 1 µM; `C[C@@H](C(=O)N(Cc1ccccc1F)Cc1ccccc1F)N1CCc2ccccc2[C@@H]1c1ccccc1Cl` [Compound 87, (2S)-2-[(1R)-1-(2-chlorophenyl)-3,4-dihydroisoquinolin-2(1H)-yl]-N,N-bis(2-fluorobenzyl)propanamide]: less than 1 µM; `O=C(CN1CCc2ccccc2[C@@H]1c1ccccc1F)N(Cc1ccccc1F)C1Cc2ccccc2C1` [Compound 58, N-(indan-2-yl)-N-(2-fluorobenzyl)-2-[(1R)-1-(2-fluorophenyl)-3,4-dihydroisoquinolin-2(1H)-yl]acetamide]: less than 1 µM.
Then `Cc1c(Cl)cccc1C1c2ccccc2CCN1CC(=O)N(Cc1ccccc1F)C1Cc2ccccc2C1` (stereo not drawn) [Compound 65, 2-[1-(3-chloro-2-methylphenyl)-3,4-dihydroisoquinolin-2(1H)-yl]-N-(indan-2-yl)-N-(2-fluorobenzyl)acetamide], with less than 1 µM.
Then `Cc1ccc2ccccc2c1C1c2ccccc2CCN1CC(=O)N(Cc1ccccc1F)C1Cc2ccccc2C1` (stereo not drawn) [Compound 83, N-(indan-2-yl)-N-(2-fluorobenzyl)-2-[1-(2-methyl-1-naphthyl)-3,4-dihydroisoquinolin-2(1H)-yl]acetamide], with less than 1 µM; and `Cc1ccccc1C1c2ccccc2CCN1CC(=O)N(Cc1ccccc1F)c1ccccc1` (stereo not drawn) [Compound 82, N-(2-fluorobenzyl)-2-[1-(2-methylphenyl)-3,4-dihydroisoquinolin-2(1H)-yl]-N-phenylacetamide], with less than 1 µM; and `Cc1ccc(C)c([C@@H]2c3ccccc3CCN2CC(=O)N(Cc2ccccc2F)C2Cc3ccccc3C2)c1` (stereo in doubt) [Compound 49, N-(indan-2-yl)-2-[1-(2,5-dimethylphenyl)-3,4-dihydroisoquinolin-2(1H)-yl]-N-(2-fluorobenzyl)acetamide], with less than 1 µM.
Take `Cc1ccc(F)c([C@H]2c3ccccc3CCN2[C@@H](C)C(=O)N(Cc2ccccc2F)C2Cc3ccccc3C2)c1` [Compound 86, (2S)-N-(indan-2-yl)-N-(2-fluorobenzyl)-2-[(1R)-1-(2-fluoro-5-methylphenyl)-3,4-dihydroisoquinolin-2(1H)-yl]propanamide]: the Ki was less than 1 µM.

One may read the Ki as the equilibrium dissociation constant of an inhibitor or competing ligand from its target.

(Values after patent US6777422B2, “Substituted tetrahydroisoquinolines as C5a receptor modulators” (Neurogen Corp., priority 2002, dated 2004).)
